Measurements: patent publication US8957093B2, “N-biphenylmethylindole modulators of PPARG” (The Scripps Research Institute, priority 2011, dated 2015)
Read-outs that look alike come from different tables or passages of the source.

Assays:
GST-PPARG-LBD = GST-PPARG-LBD (Homo sapiens (Human), UniProt P37231); experiment: Lanthascreen PPARG competitive binding assay (Invitrogen, TR-FRET); settings: NA = not active, inc = incomplete curve, read-out: IC50 (nM) Lantha
Outline: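 Values are fold change in 520 nm/490 nm FRET ratio relative to a 2% DMSO no-ligand control, excitation 340 nm. Compound dilutions starting at 10 μM competed against 5 nM Fluormone Pan-PPAR Green for GST-PPARG-LBD bound by 5 nM Tb anti-GST antibody. Incubation 2 h in the dark in assay buffer C, triplicate wells.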

[1] = target: Gal-4-PPAR (human PPAR LBD fused to GAL4 DNA-binding domain) (Homo sapiens (Human), UniProt P37231); experiment: GAL4-PPARG LBD / UAS-luciferase transactivation assay in HEK 293T cells; format: cell-based
[2] = Lanthascreen competitive binding
[3] = GAL4 transactivation, HEK 293T cells; NA = not active; read-out: EC50 (nM) GAL4
[4] = HEK-293T, 18 h; read-out: % transactivation at 10 μM (GAL4)
[5] = Lanthascreen PPARG competitive binding
[6] = GAL4 transactivation; read-out: EC50 (nM) GAL4
[7] = HEK-293T, 18 h, read-out: % transactivation at 10 μM (GAL4)

Sequence of Gal-4-PPAR (human PPAR LBD fused to GAL4 DNA-binding domain) (P37231 238-503): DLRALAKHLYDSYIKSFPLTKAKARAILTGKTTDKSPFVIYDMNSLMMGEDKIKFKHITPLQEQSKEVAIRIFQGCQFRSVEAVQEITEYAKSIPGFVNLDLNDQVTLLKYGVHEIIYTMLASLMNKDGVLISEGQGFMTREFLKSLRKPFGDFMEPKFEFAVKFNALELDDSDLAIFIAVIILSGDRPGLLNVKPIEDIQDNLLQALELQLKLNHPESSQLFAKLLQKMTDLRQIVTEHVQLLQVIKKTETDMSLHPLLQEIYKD
Sequence of GST-PPARG-LBD (P37231 238-503): as above

Row | IC50 (GST-PPARG-LBD; [2]) [nM] | EC50 [1, 3] [nM] | activation at 10 µM [1, 4] [%] | activation at 10 µM [1, 7] [%] | SMILES | IC50 (GST-PPARG-LBD; [5]) [nM] | EC50 [1, 6] [nM]
1 | 61 | 522 | 5 |  | Cc1c(C)n(Cc2ccc(-c3ccccc3C(=O)O)cc2)c2ccc(C(=O)N[C@@H](C)c3ccc(C(F)(F)F)cc3)cc12 [Example 154, (S)-4′-((2,3-dimethyl-5-((1-(4-(trifluoromethyl)phenyl)ethyl)carbamoyl)-1H-indol-1-yl)methyl)-[1,1′-biphenyl]-2-carboxylic acid] |  | 
2 | 16 | 360 | 20 |  | COc1ccccc1[C@H](C)NC(=O)c1ccc2c(c1)c(C)c(C)n2Cc1ccc(-c2ccccc2C(=O)O)cc1 [Example 175, (S)-4′-((5-((1-(2-methoxyphenyl)ethyl)carbamoyl)-2,3-dimethyl-1H-indol-1-yl)methyl)-[1,1′-biphenyl]-2-carboxylic acid] |  | 
3 | 9 | 166 | 40 |  | Cc1c(C)n(Cc2ccc(-c3ccccc3C(=O)O)cc2)c2ccc(C(=O)N[C@@H](C)c3ccc(F)c(F)c3)cc12 [Example 233, (S)-4′-((5-((1-(3,4-difluorophenyl)ethyl)carbamoyl)-2,3-dimethyl-1H-indol-1-yl)methyl)-[1,1′-biphenyl]-2-carboxylic acid] |  | 
4 | 51 | 6060 | 15 |  | Cc1c(C)n(Cc2ccc(-c3ccccc3C(=O)O)cc2)c2ccc(C(=O)N[C@@H](C)c3c(Cl)cccc3Cl)cc12 [Example 142, (S)-4′-((5-((1-(2,6-dichlorophenyl)ethyl)carbamoyl)-2,3-dimethyl-1H-indol-1-yl)methyl)-[1,1′-biphenyl]-2-carboxylic acid] |  | 
5 | 17 | 169 |  | 15 | Cc1c(C)n(Cc2ccc(-c3ccccc3C(=O)O)cc2)c2ccc(C(=O)N[C@H](C)c3cc(F)ccc3C(F)(F)F)cc12 [Example 239, (R)-4′-((5-((1-(5-fluoro-2-(trifluoromethyl)phenyl)ethyl)carbamoyl)-2,3-dimethyl-1H-indol-1-yl)methyl)-[1,1′-biphenyl]-2-carboxylic acid] |  | 
6 | < 1 | 70 | 35 |  | Cc1c(F)cccc1[C@H](C)NC(=O)c1ccc2c(c1)c(C)c(C)n2Cc1ccc(-c2ccccc2C(=O)O)cc1 [Example 145, (S)-4′-((5-((1-(3-fluoro-2-methylphenyl)ethyl)carbamoyl)-2,3-dimethyl-1H-indol-1-yl)methyl)-[1,1′-biphenyl]-2-carboxylic acid] |  | 
7 | 9 | 354 | 30 |  | Cc1c(C)n(Cc2ccc(-c3ccccc3C(=O)O)cc2)c2ccc(C(=O)N[C@@H](C)c3cccc(F)c3F)cc12 [Example 229, (S)-4′-((5-((1-(2,3-difluorophenyl)ethyl)carbamoyl)-2,3-dimethyl-1H-indol-1-yl)methyl)-[1,1′-biphenyl]-2-carboxylic acid] |  | 
8 | 36 | 173 |  | 20 | Cc1c(C)n(Cc2ccc(-c3ccccc3C(=O)O)cc2)c2ccc(C(=O)N[C@@H](C)c3ccc(F)cc3C(F)(F)F)cc12 [Example 227, (S)-4′-((5-((1-(4-fluoro-2-(trifluoromethyl)phenyl)ethyl)carbamoyl)-2,3-dimethyl-1H-indol-1-yl)methyl)-[1,1′-biphenyl]-2-carboxylic acid] |  | 
9 | 53 | 1060 | 15 |  | Cc1c(C)n(Cc2ccc(-c3ccccc3C(=O)O)cc2)c2ccc(C(=O)N[C@@H](C)c3ccc(C(F)(F)F)c(F)c3)cc12 [Example 228, (S)-4′-((5-((1-(3-fluoro-4-(trifluoromethyl)phenyl)ethyl)carbamoyl)-2,3-dimethyl-1H-indol-1-yl)methyl)-[1,1′-biphenyl]-2-carboxylic acid] |  | 
10 | 41 | 7540 | 35 |  | Cc1c(C)n(Cc2ccc(-c3ccccc3C(=O)O)cc2)c2ccc(C(=O)N[C@@H](C)c3ccncc3Cl)cc12 [Example 148, (S)-4′-((5-((1-(3-chloropyridin-4-yl)ethyl)carbamoyl)-2,3-dimethyl-1H-indol-1-yl)methyl)-[1,1′-biphenyl]-2-carboxylic acid] |  | 

Second part, the molecule before the results:

Row | SMILES | IC50 (GST-PPARG-LBD; [2]) [nM] | EC50 [1, 3] [nM] | activation at 10 µM [1, 4] [%] | activation at 10 µM [1, 7] [%] | IC50 (GST-PPARG-LBD; [5]) [nM] | EC50 [1, 6] [nM]
11 | Cc1c(C)n(Cc2ccc(-c3ccccc3C(=O)O)cc2)c2ccc(C(=O)N[C@@H](C)C3CCN(C(=O)OCc4ccccc4)CC3)cc12 [Example 202, (S)-4′-((5-((1-(1-((benzyloxy)carbonyl)piperidin-4-yl)ethyl)carbamoyl)-2,3-dimethyl-1H-indol-1-yl)methyl)-[1,1′-biphenyl]-2-carboxylic acid] | 35 | 1750 | 40 |  |  | 
12 | Cc1c(C)n(Cc2ccc(-c3ccccc3C(=O)O)cc2)c2ccc(C(=O)N[C@@H](C)c3cc(F)c(F)cc3F)cc12 [Example 301, (S)-4′-((2,3-Dimethyl-5-((1-(2,4,5-trifluorophenyl)ethyl)carbamoyl)-1H-indol-1-yl)methyl)-[1,1′-biphenyl]-2-carboxylic acid] |  |  | 40 |  | 8 | 198
13 | Cc1c(C)n(Cc2ccc(-c3ccccc3C(=O)O)cc2)c2ccc(C(=O)N[C@H](C)c3ccnc(Br)c3)cc12 [Example 269, (R)-4′-((5-(1-(2-bromopyridin-4-yl)ethylcarbamoyl)-2,3-dimethyl-1H-indol-1-yl)methyl)biphenyl-2-carboxylic acid] | 8 | 907 | 40 |  |  | 
14 | Cc1c(C)n(Cc2ccc(-c3ccccc3C(=O)O)cc2)c2ccc(C(=O)N[C@@H](C)c3ccnc4ccccc34)cc12 [Example 149, (S)-4′-((2,3-dimethyl-5-((1-(quinolin-4-yl)ethyl)carbamoyl)-1H-indol-1-yl)methyl)-[1,1′-biphenyl]-2-carboxylic acid] | 6 | 1680 | 15 |  |  | 
15 | Cc1c(C)n(Cc2ccc(-c3ccccc3C(=O)O)cc2)c2ccc(C(=O)NC(C)c3cccc(C4CC4)n3)cc12 (stereo not drawn) [Example 272, 4′-((5-(1-(6-cyclopropylpyridin-2-yl)ethylcarbamoyl)-2,3-dimethyl-1H-indol-1-yl)methyl)biphenyl-2-carboxylic acid] | < 1 | 2 | 20 |  |  | 
16 | Cc1c(C)n(Cc2ccc(-c3ccccc3C(=O)O)cc2)c2ccc(C(=O)N[C@@H](C)c3cccc4ccccc34)cc12 [Example 152, (S)-4′-((2,3-dimethyl-5-((1-(naphthalen-1-yl)ethyl)carbamoyl)-1H-indol-1-yl)methyl)-[1,1′-biphenyl]-2-carboxylic acid] | 256 | 766 | 17 |  |  | 
17 | Cc1c(C)n(Cc2ccc(-c3ccccc3C(=O)O)cc2)c2ccc(C(=O)N[C@@H](C)[C@H]3CCCN3C(=O)OCc3ccccc3)cc12 [Example 238, 4′-((5-(((S)-1-((R)-1-((benzyloxy)carbonyl)pyrrolidin-2-yl)ethyl)carbamoyl)-2,3-dimethyl-1H-indol-1-yl)methyl)-[1,1′-biphenyl]-2-carboxylic acid] | 20 | 193 | 55 |  |  | 
18 | Cc1c(C)n(Cc2ccc(-c3ccccc3C(=O)N(C)C)cc2)c2ccc(C(=O)N[C@@H](C)c3cccc(C(C)C)c3)cc12 [Example 312, (S)-1-((2′-(Dimethylcarbamoyl)-[1,1′-biphenyl]-4-yl)methyl)-N-(1-(3-isopropylphenyl)ethyl)-2,3-dimethyl-1H-indole-5-carboxamide] |  |  | 10 |  | 148 | 914
19 | Cc1c(C)n(Cc2ccc(-c3ccccc3C(=O)O)cc2)c2ccc(C(=O)N[C@@H](C)c3ccc(C(F)(F)F)cc3F)cc12 [Example 298, (S)-4′-((5-((1-(2-Fluoro-4-(trifluoromethyl)phenyl)ethyl)carbamoyl)-2,3-dimethyl-1H-indol-1-yl)methyl)-[1,1′-biphenyl]-2-carboxylic acid] |  |  | 10 |  | 11 | 448
20 | Cc1c(C)n(Cc2ccc(-c3ccccc3C(=O)O)cc2)c2ccc(C(=O)N[C@H](C)c3ccc(C(F)(F)F)cc3C(F)(F)F)cc12 [Example 209, (R)-4′-((5-((1-(2,4-bis(trifluoromethyl)phenyl)ethyl)carbamoyl)-2,3-dimethyl-1H-indol-1-yl)methyl)-[1,1′-biphenyl]-2-carboxylic acid] | 11 | 211 | 10 |  |  | 
21 | CC[C@@H](NC(=O)c1ccc2c(ccn2Cc2ccccc2-c2cccc(C(=O)O)c2)c1)c1ccccc1 [Example 192, (R)-2′-((5-((1-phenylpropyl)carbamoyl)-1H-indol-1-yl)methyl)-[1,1′-biphenyl]-3-carboxylic acid] | 4 | 27 | 40 |  |  | 
22 | COc1ccc(F)cc1[C@@H](C)NC(=O)c1ccc2c(c1)c(C)c(C)n2Cc1ccc(-c2ccccc2C(=O)O)cc1 [Example 205, (R)-4′-((5-((1-(5-fluoro-2-methoxyphenyl)ethyl)carbamoyl)-2,3-dimethyl-1H-indol-1-yl)methyl)-[1,1′-biphenyl]-2-carboxylic acid] | 5 | 637 | 20 |  |  | 
23 | Cc1c(C)n(Cc2ccc(-c3ccccc3C(=O)O)cc2)c2ccc(C(=O)N[C@@H](C)[C@@H]3CCN(C(=O)OCc4ccccc4)C3)cc12 [Example 240, 4′-((5-(((S)-1-((R)-1-((benzyloxy)carbonyl)pyrrolidin-3-yl)ethyl)carbamoyl)-2,3-dimethyl-1H-indol-1-yl)methyl)-[1,1′-biphenyl]-2-carboxylic acid] | 58 | 1300 | 25 |  |  | 
